The values below come from US9181185B2, “Heteroaryl compounds as sodium channel blockers” (Purdue Pharma L.P., priority 2011, dated 2015).

The target of assay [1] is human Nav1.7 (Homo sapiens (Human), UniProt Q15858). As to the kind of experiment: FLIPR or FLIPR TETRA sodium dye assay with KCl and test article pre-incubation. It counts as cell-based.
For assay [2], the target named is hNav1.7 (Homo sapiens (Human), UniProt Q15858). As to the kind of experiment: Electrophysiology (EP) assay, whole-cell patch clamp. It counts as cell-based. As to conditions: hNav1.7 HEK-293 cells; for Kd: Kf (method describes resting block dissociation constant Kr), read-out: EP Nav 1.7 Kf (μM) ± SEM; for Ki: affinity for inactivated state, read-out: EP Nav 1.7 Ki (μM) ± SEM. The procedure:
Cells: The hNav1.7 expressing HEK-293 cells were plated on 35 mm culture dishes pre-coated with poly-D-lysine in standard DMEM culture media (Mediatech, Inc., Herndon, Va.) and incubated in a 5% CO2 incubator at 37° C. Cultured cells were used approximately 12-48 hours after plating.
Electrophysiology: On the day of experimentation, the 35 mm dish was placed on the stage of an inverted microscope equipped with a perfusion system that continuously perfuses the culture dish with fresh recording media. A gravity driven superfusion system was used to apply test solutions directly to the cell under evaluation. This system consists of an array of glass pipette glass connected to a motorized horizontal translator. The outlet of the shooter was positioned approximately 100 μm from the cell of interest.
Whole cell currents were recorded using the whole-cell patch clamp configuration using an Axopatch 200B amplifier (Axon Instruments, Foster City Calif.), 1322A A/D converter (Axon Instruments) and pClamp software (v. 8; Axon Instruments) and stored on a personal computer. Gigaseals were formed and the whole-cell configuration was established in voltage clamp mode, and membrane currents generated by hNav1.7 were recorded in gap-free mode. Borosilicate glass pipettes have resistance values between 1.5 and 2.0 MΩ when filled with pipette solution and series resistance (<5 MΩ) was compensated 75-80%. Signals were sampled at 50 kHz and low pass filtered at 3 kHz.
Voltage Protocols: After establishing the whole-cell configuration in voltage clamp mode, voltage protocols were run to establish the 1) test potential, 2) holding potential, and 3) the conditioning potential for each cell.
After establishing the whole-cell configuration in voltage clamp mode, a standard I-V protocol was run to determine the potential at which the maximal current (Imax) is elicited. This potential was the test potential (Vt). To determine a conditioning potential at which 100% of channels were in the inactivated state, a standard steady-state inactivation (SSIN) protocol was run using a series of fifteen 100 ms-long depolarizing prepulses, incrementing in 10 mV steps, immediately followed by a 5 ms testing pulse, Vt, to Vmax. This protocol also permitted determination of the holding potential at which all channels are in the resting state.
For compounds causing significant retardation of recovery from inactivation, an estimate of the affinity for the inactivated state of the channel (Ki) was generated using the following protocol. From the negative, no residual inactivation, holding potential, the cell was depolarized to the conditioning voltage for 2-5 seconds, returned to the negative holding potential for 10-20 ms to relieve fast inactivation and then depolarized to the test potential for ˜15 ms. This voltage protocol was repeated every 10-15 seconds, first to establish a baseline in the absence of the test compound, then in the presence of the test compound.
After a stable baseline was established, the test compound was applied and block of the current elicited by the test pulse assessed. In some cases, multiple cumulative concentrations were applied to identify a concentration that blocked between 40-60% of this current. Washout of the compound was attempted by superfusing with control solution once steady-state block was observed. An estimate of the Ki was calculated as follows: Ki=[drug]*{FR/(1−FR)}, Eq. 1 where [drug] is the concentration of a drug, and FR=I(after drug)/l(control), Eq. 2 where I is the peak current amplitude. If multiple concentrations were used, Ki was determined from the fit of a logistic equation to FRs plotted against corresponding drug concentrations.
In the alternative, the voltage clamp protocol to examine hNav1.7 currents was as follows. […]
On the technique in general: In patch-clamp work, channel activity is measured electrically.

Setting [3] is: read-out: FLIPR Nav 1.7 IC50 (μM) ± SEM.
The mark [4] stands for this setting: recombinant HEK293 cells expressing human Nav1.7, CoroNa Green sodium dye, veratridine + scorpion venom, read-out: FLIPR Nav 1.7 IC50 (μM) ± SEM.

Read-outs that look alike come from different tables or passages of the source.

hNav1.7, sequence (Q15858 other isoform, or with tags, fused parts or gaps): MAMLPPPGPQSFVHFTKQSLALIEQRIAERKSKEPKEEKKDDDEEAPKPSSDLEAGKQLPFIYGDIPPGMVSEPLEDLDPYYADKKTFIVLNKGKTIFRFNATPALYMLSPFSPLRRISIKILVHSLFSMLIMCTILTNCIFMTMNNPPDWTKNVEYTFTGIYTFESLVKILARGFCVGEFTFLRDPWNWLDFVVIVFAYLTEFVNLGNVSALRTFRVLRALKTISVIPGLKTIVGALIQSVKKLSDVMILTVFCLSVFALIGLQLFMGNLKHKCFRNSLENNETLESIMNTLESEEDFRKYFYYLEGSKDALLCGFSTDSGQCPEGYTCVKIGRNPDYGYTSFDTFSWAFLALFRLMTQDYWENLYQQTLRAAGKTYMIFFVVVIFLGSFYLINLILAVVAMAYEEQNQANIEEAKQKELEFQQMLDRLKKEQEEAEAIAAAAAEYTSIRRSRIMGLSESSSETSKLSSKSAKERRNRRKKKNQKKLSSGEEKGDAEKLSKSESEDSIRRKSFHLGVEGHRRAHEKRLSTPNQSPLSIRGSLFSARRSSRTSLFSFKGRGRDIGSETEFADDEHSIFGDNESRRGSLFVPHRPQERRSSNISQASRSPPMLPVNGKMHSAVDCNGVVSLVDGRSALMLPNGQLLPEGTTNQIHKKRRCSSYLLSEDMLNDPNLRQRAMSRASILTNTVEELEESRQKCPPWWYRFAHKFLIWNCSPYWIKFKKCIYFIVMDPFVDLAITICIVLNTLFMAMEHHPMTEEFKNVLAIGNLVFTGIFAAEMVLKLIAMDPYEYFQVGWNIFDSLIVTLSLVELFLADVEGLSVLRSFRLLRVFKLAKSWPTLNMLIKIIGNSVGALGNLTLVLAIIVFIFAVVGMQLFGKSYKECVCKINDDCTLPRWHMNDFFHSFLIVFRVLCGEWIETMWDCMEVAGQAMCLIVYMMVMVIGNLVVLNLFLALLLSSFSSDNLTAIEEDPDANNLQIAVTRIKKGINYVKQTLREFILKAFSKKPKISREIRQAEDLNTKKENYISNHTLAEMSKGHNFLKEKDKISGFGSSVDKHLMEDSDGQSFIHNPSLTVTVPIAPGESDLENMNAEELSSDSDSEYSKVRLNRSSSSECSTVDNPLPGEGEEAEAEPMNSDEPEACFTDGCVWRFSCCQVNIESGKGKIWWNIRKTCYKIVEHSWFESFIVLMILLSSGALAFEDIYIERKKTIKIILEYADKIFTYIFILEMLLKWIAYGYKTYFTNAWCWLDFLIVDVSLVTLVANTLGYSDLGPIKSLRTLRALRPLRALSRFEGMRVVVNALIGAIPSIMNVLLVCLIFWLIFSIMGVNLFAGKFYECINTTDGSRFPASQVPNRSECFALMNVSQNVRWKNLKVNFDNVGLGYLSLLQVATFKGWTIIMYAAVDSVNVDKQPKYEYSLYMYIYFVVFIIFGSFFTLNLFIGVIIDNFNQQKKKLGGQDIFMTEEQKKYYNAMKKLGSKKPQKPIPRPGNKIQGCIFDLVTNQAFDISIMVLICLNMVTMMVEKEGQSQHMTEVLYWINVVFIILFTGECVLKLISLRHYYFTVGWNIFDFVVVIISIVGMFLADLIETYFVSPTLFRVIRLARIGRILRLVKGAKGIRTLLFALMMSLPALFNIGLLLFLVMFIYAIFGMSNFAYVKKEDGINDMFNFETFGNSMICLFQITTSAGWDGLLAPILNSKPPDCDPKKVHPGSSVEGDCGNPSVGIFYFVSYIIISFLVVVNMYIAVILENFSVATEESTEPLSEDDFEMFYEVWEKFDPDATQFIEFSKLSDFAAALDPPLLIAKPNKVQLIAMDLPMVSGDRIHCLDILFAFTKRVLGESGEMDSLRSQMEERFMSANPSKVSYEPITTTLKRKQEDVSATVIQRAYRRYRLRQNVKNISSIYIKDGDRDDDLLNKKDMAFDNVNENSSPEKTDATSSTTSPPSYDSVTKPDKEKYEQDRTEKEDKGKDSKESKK
human Nav1.7, sequence (Q15858 other isoform, or with tags, fused parts or gaps): as above

As to `NC(=O)[C@H](O)[C@@H](O)c1cccc(-c2ccc(Oc3ccc(Cl)cn3)cc2)n1`, the 50% inhibitory concentration (IC50) (as a rule, the concentration needed to halve the response being measured) in assay [1] (setting [3]) was determined as 1.44 ± 0.078 µM.

On to `NC(=O)[C@@H](O)[C@H](O)c1cccc(-c2ccc(Oc3ccc(Cl)cn3)cc2)n1`, for which the half-inhibitory concentration (IC50) in assay [1] (setting [3]) turned out to be 1.19 ± 0.074 µM. As for `N#Cc1ccc(Oc2ccc(-c3cccc([C@@H](O)[C@H](O)C(N)=O)n3)cc2)cc1`, in assay [1] (setting [4]), the half-maximal inhibitory concentration (IC50) stood at 0.262 ± 0.017 µM. In the case of `N#Cc1ccc(Oc2ccc(-c3cccc([C@@H](O)[C@H](O)C(N)=O)n3)cc2)cc1C(F)(F)F`, in assay [1] (setting [4]), the IC50 is 0.461 ± 0.045 µM. For `CNC(=O)[C@@H](O)[C@H](O)c1cn(-c2ccc(Oc3ccc(C(F)(F)F)cn3)cc2)c2ccccc12` [Compound 7, (2S,3R)-2,3-Dihydroxy-N-methyl-3-(1-(4-((5-(trifluoromethyl)pyridin-2-yl)oxy)phenyl)-1H-indol-3-yl)propanamide], the IC50 in assay [1] (setting [4]) is 0.282 ± 0.002 µM. Take `N#Cc1cc(Oc2ccc(-c3cccc([C@H](O)[C@@H](O)C(N)=O)n3)cc2)ccc1C(F)(F)F` [Compound 19, (2R,3S)-3-(6-(4-(3-Cyano-4-(trifluoromethyl)phenoxy)phenyl)pyridin-2-yl)-2,3-dihydroxypropanamide]: the IC50 in assay [1] (setting [3]) was 0.244 ± 0.05 µM. In assay [2], the Kd is 17.1 ± 4.24 µM and the Ki is 0.347 ± 0.07 µM. For the compound `N#Cc1ccc(Oc2ccc(-c3cccc([C@H](O)[C@@H](O)C(N)=O)n3)cc2)cc1`, in assay [1] (setting [4]), the concentration for half-maximal inhibition (IC50) was 0.69 ± 0.071 µM.

For `NC(=O)[C@H](O)[C@@H](O)c1cccc(-c2ccc(Oc3ccc(F)cc3)cc2)n1`, the IC50 in assay [1] (setting [3]) was 1.84 ± 0.309 µM. As to `N#Cc1ccc(Oc2ccc(-c3cccc([C@H](O)[C@@H](O)C(N)=O)n3)cc2)cc1C(F)(F)F`, in assay [1] (setting [4]), the IC50 is 0.489 ± 0.04 µM. For `NC(=O)[C@H](O)[C@@H](O)c1cn(-c2ccc(Oc3ccc(C(F)(F)F)cn3)cc2)c2ccccc12` [Compound 5, (2R,3S)-2,3-Dihydroxy-3-(1-(4-((5-(trifluoromethyl)pyridin-2-yl)oxy)phenyl)-1H-indol-3-yl)propanamide], in assay [1] (setting [3]), the half-maximal inhibitory concentration (IC50) was determined as 0.314 ± 0.038 µM. With `NC(=O)[C@@H](O)[C@H](O)c1cccc(-c2ccc(Oc3ccc(C(F)(F)F)cn3)cc2)n1`, the concentration for half-maximal inhibition (IC50) in assay [1] (setting [4]) worked out at 0.711 ± 0.05 µM. Still for that read-out and setting: the figure for `NC(=O)[C@H](O)[C@@H](O)c1cccc(-c2ccc(Oc3ccc(C(F)(F)F)cn3)cc2)n1` is 1.69 ± 0.019 µM.

For `N#Cc1cc(Oc2ccc(-c3cccc([C@@H](O)[C@H](O)C(N)=O)n3)cc2)ccc1C(F)(F)F` [Compound 15, (2S,3R)-3-(6-(4-(3-Cyano-4-(trifluoromethyl)phenoxy)phenyl)pyridin-2-yl)-2,3-dihydroxypropanamide], the IC50 in assay [1] (setting [3]) turned out to be 0.304 ± 0.022 µM. For the same compound, in assay [2], the Kd stood at 32.9 ± 6.89 µM and the Ki was 0.917 ± 0.05 µM. Take `NC(=O)[C@H](O)[C@@H](O)c1cccc(-c2ccc(Oc3ccc(Cl)nc3)cc2)n1`: the IC50 in assay [1] (setting [4]) was found to be 0.804 ± 0.044 µM.

Take `CCOC(=O)[C@@H](O)[C@H](O)c1cn(-c2ccc(Oc3ccc(C(F)(F)F)cn3)cc2)c2ccccc12` [Compound 6, (2S,3R)-Ethyl 2,3-dihydroxy-3-(1-(4-((5-(trifluoromethyl)pyridin-2-yl)oxy)phenyl)-1H-indol-3-yl)propanoate]: the concentration for half-maximal inhibition (IC50) in assay [1] (setting [4]) turned out to be 0.152 ± 0.031 µM. For the compound `NC(=O)[C@@H](O)[C@H](O)c1cccc(-c2ccc(Oc3ccc(Cl)nc3)cc2)n1`, the IC50 in assay [1] (setting [4]) was 0.376 ± 0.057 µM. `NC(=O)[C@@H](O)[C@H](O)c1cccc(-c2ccc(Oc3ccc(F)cc3)cc2)n1`: the half-inhibitory concentration (IC50) in assay [1] (setting [3]) was found to be 1.41 ± 0.281 µM. The same measure, in the same setting: the figure for `NC(=O)[C@@H](O)[C@H](O)c1cn(-c2ccc(Oc3ccc(C(F)(F)F)cn3)cc2)c2ccccc12` [Compound 8, (2S,3R)-2,3-Dihydroxy-3-(1-(4-((5-(trifluoromethyl)pyridin-2-yl)oxy)phenyl)-1H-indol-3-yl)propanamide] is 0.193 ± 0.049 µM.

For `NC(=O)[C@H](O)[C@@H](O)c1ccnc(-c2ccc(Oc3ccc(F)cc3)cc2)n1` [Compound 26, (2R,3S)-3-(2-(4-(4-fluorophenoxy)phenyl)pyrimidin-4-yl)-2,3-dihydroxypropanamide], the IC50 in assay [1] (setting [4]) amounted to 0.625 ± 0.058 µM. Moreover, in assay [2], the Kd amounted to 97.9 ± 23.1 µM and the Ki was determined as 2.26 ± 0.61 µM. In assay [1], `CCOC(=O)[C@@H](O)[C@H](O)c1cccc(-c2ccc(Oc3ccc(C(F)(F)F)c(C#N)c3)cc2)n1` [Compound 14, (2S,3R)-Ethyl 3-(6-(4-(3-cyano-4-(trifluoromethyl)phenoxy)phenyl)pyridin-2-yl)-2,3-dihydroxypropanoate] gave an IC50 of 0.246 ± 0.031 µM. With `NC(=O)[C@@H](O)[C@H](O)c1cccc(-c2ccc(Oc3ccc(C(F)(F)F)cc3)cc2)n1`, in assay [1] (setting [4]), the IC50 was 0.13 ± 0.025 µM. On the same count and under the same terms, the figure for `NC(=O)[C@H](O)[C@@H](O)c1cccc(-c2ccc(Oc3ccc(C(F)(F)F)cc3)cc2)n1` is 0.383 ± 0.072 µM.
